How the values were obtained:
[1] = Kinetics of AS decomposition in Tyrode solution; assay type: physicochemical; conditions: after ~1000 sec (16 min); Tyrode solution pH 7.4, room temperature; identical for 0.1-1 mM AS
Description: FIG. IA-FIG. 1D show the effects of HNO donor AS on sarcomere shortening in isolated mouse ventricular myocytes.
At physiological pH, AS decomposes to produce HNO and nitrite. Whether nitrite could play a role in the observed responses was therefore tested. […] Identical results were obtained for 0.1-1 mM AS. Thus, at time of functional analysis, 25-250 μM NO2^− is expected; however, such levels (and higher or lower doses) had no effect on sarcomere shortening (FIG. 1H).

[2] = system: mice cardiomyocytes; experiment: Whole Ca2+ transients in isolated mouse myocytes (fluo-4, confocal line scan); assay type: cell-based
Description: Wild type 2-4 month old mice were anesthetized with intraperitoneal pentobarbital sodium (100 mg/kg/ip). Hearts were perfused as previously described. Mongillo, M. et al., Circ. Res., 98, 226-234 (2006). To assess for sarcomere shortening, cells were imaged using field stimulation (Warner instruments) in an inverted fluorescence microscope (Diaphot 200; Nikon, Inc). Sarcomere length was measured by real-time Fourier transform (IonOptix MyoCam, CCCCD100M) and cell twitch amplitude is expressed as a percentage of resting cell length. Twitch kinetics was quantified by measuring the time to peak shortening and the time from peak shortening to 50% relaxation. For whole calcium transient measurements, myocytes were loaded with the Ca^2+ indicator fluo-4/AM (Molecular Probes, 20 μM for 30 min) and Ca^2+ transients were measured under field-stimulation at 0.5 Hz in perfusion solution by confocal laser scanning microscope (LSM510, Carl Zeiss). Digital image analysis used customer-designed programs coded in Interactive Data Language (IDL).
To further explore potential HNO targets, calcium cycling in adult mouse and rat cardiac myocytes was examined. Cells were first exposed to AS for 5-10 min, then washed and loaded with Indo-1 or Fluo-4 for 20 min. Pretreatment with AS was carried out because the drug reacted with the Ca^2+ indicators (both Fluo-4 and Indo-1) and altered their fluorescent properties. In mice, the calcium transient amplitude assessed by confocal line scan imaging increased by ˜40% over baseline with 0.5 mM AS, (n=27, p<0.001) (FIG. 3A-FIG. 3C), time to peak transient was prolonged (FIG. 3D) while the decay time shortened (FIG. 3E). Basal fluorescence (F0) was unchanged by AS pretreatment (FIG. 3F). Similar results were obtained in rat myocytes (using Indo-1) for Ca^2+ transient amplitude (FIG. 3G and FIG. 3H) and decay time (FIG. 3I). The increase in amplitude was not accompanied by an increase in diastolic Ca^2+ level (ratio 405/485=0.239±0.006 (Con) vs. 0.243±0.008 (AS); n.s.; see also FIG. 3A, FIG. 3F and FIG. 3G). Rapid sustained caffeine (10 mM) application abruptly releases all SR Ca^2+ and subsequent [Ca^2+]i decline is mediated mainly via Na/Ca exchange.

Q: Which “nitrite generation on AS decomposition” value [1] does the source give for `[Na+].[Na+].[O-][N+]([O-])=NO` [AS, Angeli's salt] here?
A: 25%

Q: What about the “Ca2+ transient decay time” value ([2]; 0.5 mM AS pretreatment) of the same compound?
A: shortened

Q: And the “time to peak Ca2+ transient” value ([2]; 0.5 mM AS pretreatment)?
A: prolonged

Q: And the “increase of calcium transient amplitude over baseline” value ([2]; 0.5 mM AS pretreatment, n=27)?
A: ~40%

Q: And the “basal fluorescence (F0)” value ([2]; AS pretreatment)?
A: unchanged

Q: And the “Ca2+ transients” value ([2]; AS, isolated murine cardiomyocytes (Example 7))?
A: without changes

Source: US20160166604A1, “Thiol-Sensitive Positive Inotropes” (priority 2005, published 2016)
